In ChEMBL document CHEMBL5233288, “Ginkgo Biflavones Cause p53 Wild-Type Dependent Cell Death in a Transcription-Independent Manner of p53” (J Nat Prod, 2023) one finds Activity data, which are given here for 1 compound.

Molecules are shown by their SMILES. The source made the active and inactive calls. The rule behind the calls is not given here.

The subject of series [1] is HCT-116. The series can be described thus: Antitumor activity against human HCT-116 cells xenografted in BALB/c nude mouse assessed as reduction in tumor volume at 30 mg/kg, ip administered once every 3 days for 12 days and measured every 2 days. The series is classed as functional, organism-based. The conditions noted are these: time 12.0 day. For orientation: A xenograft is tissue or cells of one species grown in another, often human tumour cells in immunodeficient mice.

Series [2] can be described thus: Toxicity against BALB/c nude mouse xenografted with human HCT-116 cells assessed as body weight loss at 30 mg/kg, ip administered once every 3 days for 12 days and measured every 2 days. The following applies: in vivo, 288 h, time 12 day. The series is classed as organism-based.

In the case of `O=c1[nH]cc(F)c(=O)[nH]1` [FLUOROURACIL], the outcome in series [1] was Active. Also, in series [2], the Activity entry is “Toxic”.
